The test system of one experiment is A375. The experiment is described as follows: qPCR of endogenous Wnt target gene AXIN2, A375. It is filed as cell-based, human. The note with it: A375; WNT3A CM, 2 μM PLX4720, 24 hours. An excerpt:
(§1) RNA purification and qRT-PCR analysis. RNA was purified using the RNeasy kit following the manufacturer's protocol (Qiagen; Maryland, Md.). cDNA was synthesized using RevertAid™ M-MuLV Reverse Transcriptase (Fermentas; Ontario, CAN). Light Cycler FastStart DNA Master SYBR Green1 (Roche; Mannheim, Germany) was used for real-time PCR as previously described (53). Quantitative PCR results presented in the manuscript are averages of a minimum of three biologic replicates.
(In general: Real-time PCR tracks product formation cycle by cycle.)

The subject of the next experiment is A375 cells. The experiment is described as follows: TUNEL assay. It is filed as cell-based, human. As to the method:
TUNEL. Glass coverslips were coated with poly-L-lysine in a 24-well dish, rinsed with PBS, and dried. Cells were seeded at a density to achieve 90-100% at harvest. 24 hours after seeding, cells were treated with the indicated conditions and incubated for 24 hours. TUNEL staining was performed according to vendor's protocol (cat#12 156 792 910) (Roche Indianapolis, Ind.). Briefly, media was gently aspirated and cells were fixed in 4% paraformaldehyde for 1 hour at room temperature. Cells were gently rinsed twice with PBS and permeabilized with 0.1% Triton X-100 in 0.1% sodium citrate for 2 minutes on ice. Cells were rinsed twice with PBS, and 40 uL of TUNEL reaction mixture was added directly on top of the slide and incubated for 1 hour at 37° C. in a humidified incubator. Slips were rinsed 3 times and mounted on superfrost plus glass slides (cat#48311-703 VWR West Chester, Pa.) with Prolong Gold anti-fade mounting media containing DAPI (cat# P36931 Invitrogen; Grand Island, N.Y.). Images were obtained on a Nikon TiE inverted widefield high-resolution microscope (Nikon Melville, N.Y.).

Experiment [1] concerns ppERK1/2. Nature of the experiment: Capillary-based isoelectric focusing of ppERK1/2 in fine needle aspirates of xenograft tumors. The note with it: two hours after initial 50 mg/kg PLX4720 vs baseline. It is filed as in vivo, mouse. Here is the method:
FIG. 10A depicts a schematic representation of the capillary-based isoelectric focusing method of detecting levels of ppERK1/2 in fine needle aspirates of xenograft tumors from vehicle or PLX4720 treated mice (top panel). Fine needle aspiration procedures (FNA) were performed on xenograft tumors three days prior to treatment for baseline samples and 2 hours after the initial oral gavage treatment of 50 mg/kg PLX4720. FNAs were analyzed for ppERK1/2 and HSP70 for normalization by capillary-based isoelectric focusing on a Nanopro1000 instrument (Cell Biosciences)(bottom panel). […] FNAs of xenograft tumors three days before treatment (baseline) or two hours following the initial treatment of 50 mg/kg PLX4720 were analyzed for ppERK1/2 and normalized to levels of HSP70. Columns and error bars represent the mean and standard deviation, respectively, from three xenograft tumors. […] FIG. 10D is a graph of results from an experiment in which xenograft tumors from FIG. 2A were sectioned, stained with hematoxylin- and eosin, and analyzed for mitotic cells by microscopy under high-power as described elsewhere herein. […]
Xenograft assays. […] Tumor size was determined by caliper measurements of tumor length and width every 3 to 4 days. Tumor volume was then calculated using the following formula: volume=(width)^2×length/2. […]

The next experiment deals with BAD and Bim (BCL2L11). Nature of the experiment: Immunoblot of BH3-only proteins BAD and Bim in A375 cells. It is filed as cell-based, human. On the technique in general: In western blotting, separated proteins are transferred to a membrane and probed.
For another experiment, the system named is GSK3β. The experiment is described as follows: Immunoblot for activating auto-phosphorylation of GSK3β in A375 cells. It is filed as cell-based, human.
The next experiment relates to MEL624. The experiment is described as follows: qPCR of endogenous Wnt target gene AXIN2, MEL624. It counts as cell-based, human. The note with it: WNT3A CM, 2 μM PLX4720, 24 hours.
Text: as §1

Experiment [2] relates to ppERK1/2. The experiment is described as follows: Immunoblot for dual-phosphorylated ERK1/2 in melanoma cells. It is filed as cell-based, human. An excerpt: By way of non-limiting example, inhibition of ERK signaling can be measured by determining the level of dual-phosphorylated ERK1/2 (ppERK1/2) as described in detail elsewhere herein. In brief, the level of ppERK1/2 can be detected by immunoblot assay.

A further experiment has as its system AXIN1. The experiment is described as follows: qRT-PCR of AXIN1 mRNA in A375 cells. It counts as cell-based, human. The note with it: A375, 2 μM PLX4720, 24 hours.
Text: as §1

A further experiment concerns COLO829. Nature of the experiment: qPCR of endogenous Wnt target gene AXIN2, COLO829. It is filed as cell-based, human. The note with it: WNT3A CM, 2 μM PLX4720, 24 hours.
Text: as §1

In experiment [3] the test system is human A375 melanoma cells grown as xenografts. Nature of the experiment: Xenograft assay, A375:GFP or A375:WNT3A tumors in NSG mice. The note with it: 50 mg/kg PLX4720 oral gavage once daily. It counts as in vivo, mouse. As to the method: Xenograft assays. NSG (NOD/SCID/IL2r-gamma (null)) mice were injected with 5×10^5 A375 cells stably expressing GFP or 5×10^5 A375 cells stably expressing WNT3A-IRES-GFP. Tumors were allowed to establish to approximately 100 mm^3, after which mice where tumor size-matched and allocated to five per treatment group (vehicle or PLX4720). WNT3A-IRES-GFP tumors grew slower and therefore the first day of treatment was day 14 while GFP expressing tumors were first treated on day 9. Treatment was by oral gavage once daily with 5% DMSO in 1% carboxymethyl cellulose or 50 mg/kg PLX4720 in 1% carboxymethyl cellulose (604 mM PLX4720 in DMSO was diluted 1:20 in 1% carboxymethylcellulose). Tumor size was determined by caliper measurements of tumor length and width every 3 to 4 days. Tumor volume was then calculated using the following formula: volume=(width)^2×length/2. Tumors were harvested 2 hours after the last dose and fixed in neutral-buffered formalin overnight at room temperature.

The record followed here is patent US20120059021A1, “COMPOSITIONS AND METHODS FOR TREATING CANCER AND METHODS FOR PREDICTING A RESPONSE TO SUCH TREATMENTS” (UNIVERSITY OF WASHINGTON, priority 2008, published 2012).

On to `CCCS(=O)(=O)Nc1ccc(F)c(C(=O)c2c[nH]c3ncc(Cl)cc23)c1F` [PLX4720, N-[3-[(5-Chloro-1H-pyrrolo[2,3-b]pyridin-3-yl)carbonyl]-2,4-difluorophenyl]-1-propanesulfonamide], for which the “SYNERGISTIC WNT ACTIVATION WITH PLX4720?” value in the experiment with A375, in the experiment on MEL624 and in the experiment with COLO829 was “YES” throughout. The TUNEL staining entry in the experiment on A375 cells (A375, agents individually) is reported as “minimal TUNEL-positivity”; in the experiment on A375 cells (WNT3A and 2 μM PLX4720, 24 hours), “presence of apoptotic cell death”. Also, the “ppERK2 in xenograft tumors (normalized to HSP70)” value in the experiment on ppERK1/2 [1] was “significantly less ppERK2”. In the experiment with BAD and Bim (BCL2L11) (A375, 2 μM PLX4720, 24 hours), the “phosphorylation of BimEL” value is given as “decreased phosphorylation of the largest Bim isoform, BimEL”. The “phosphorylation of Ser75 on BAD” value in the experiment on BAD and Bim (BCL2L11) (A375, 24 hours) is listed as “decreased Ser75 phosphorylation”. Besides, in the experiment with BAD and Bim (BCL2L11) (A375, combination of WNT3A and PLX4720, 24 hours), the “BimL and BimS levels” value is “marked increase in BimL and BimS”. The “activating auto-phosphorylation of GSK3B” value with GSK3β is given as “lost”. Moreover, in the experiment with ppERK1/2 [2] (A375), the “dual-phosphorylated ERK1/2 (ppERK1/2)” value was “dose-dependent inhibition”. For the same compound, the “time to inhibition of ppERK” value with ppERK1/2 [2] (A375, WNT3A and PLX4720 time course) is no more than 30 min. In addition, the ERK1/2 phosphorylation entry in the experiment with ppERK1/2 [2] (six established melanoma lines harboring the BRAF^V600E mutation) is “inhibition of ERK1/2 phosphorylation”. In addition, the “AXIN1 gene expression (mRNA)” value in the experiment with AXIN1 is “no transcriptional regulation of AXIN1 gene expression”. The tumor growth result in experiment [3] (A375:GFP tumors) is given as “decreased tumor growth compared to drug vehicle”; in experiment [3] (A375:WNT3A tumors, over four weeks), “near complete suppression”.
